These results are taken from patent publication US20090011052A1, “Anti-HIV medicinal herbs composition, preparation thereof and use of the same” (priority 2004, published 2009).

Assay [1] deals with SIVmac251. As to the kind of experiment: Blood CD4+ lymphocyte count in SIVmac251-infected Rhesus monkey. Format: in vivo. The text has this: They were fed with commercial popped feeds.
Measurement of blood CD4^+ count: Blood samples were drawn from the animals before infection and 14, 28, 42 and 60 days after infection with SIVmac251 Ficoll lymphocyte separation fluid was adopted to isolate the peripheral lymphocytes. After tagging the anti-CD4 monoclonal antibody with direct fluorescence, the cells were counted on FACS machine to obtain the CD4^+ percentage. In combination with WBC count with DC of routine blood examination, the total count of blood CD4^+ lymphocytes was calculated. • 1.

In assay [2] the test system is SIVmac251. As to the kind of experiment: Plasma viral load in SIVmac251-infected Rhesus monkey. As to conditions: within the dosing range.
Excerpt: Experiment animals: 5 females and 5 males Rhesus monkey as experimental animal with 4.5-5.5 Kg/each for a total of 10 were used, purchased from Primate Breeding Center, Research Institute of Experimental Animals, Chinese Academy of Medical Sciences. They were fed with commercial popped feeds. No abnormal physical examination was found before the experiment. Potential infections with SIV, SRV Type D and STLV-I were excluded by the serum IFA antibody test.
Each animal was intravenously infected with 1 ml virus solution equivalent to 3MID100 viral load.
Within each group, there were 3-4 animals with equal females and males. […] No drug treatment was offered for SIVmac251 infection control group.
Observation pre- and post-infection: Besides other pre-infection physical examinations, body weight and blood-drawing were made for each monkey (conducting all parameter tests). […] At the pre-determined timepoints, blood was drawn for the monkey to measure the plasma viral titer, blood CD4^+ count and antibody titre. […]
Plasma virus isolation: After the animals were infected with SIVmac251, to collect the blood samples were collected respectively at Days 7, 11, 14, 21, 28, 42, 60 and the plasma were separated by heparin anti-clotting. […] The viral titre was chosen for the sample with the lowest inoculation quantity but showing the typical patterns of cellular confluence. […]

Consider `Cc1cn([C@H]2C[C@H](N=[N+]=[N-])[C@@H](CO)O2)c(=O)[nH]c1=O` [AZT], for which the “CD4 cells spared of the viral attacks (protected)” value in assay [1] (2 and 4 weeks post-infection) was determined as 35%. Further, the “CD4+ lymphocytes” value in assay [1] (2 week infection) is given as 714.51; in assay [1] (4 week), 540.57; in assay [1] (6 week) it was 543.31; in assay [1] (8 w), 530.95; in assay [1] (Pre-experiment), 959.86. Further, the results for the “CD4+ lymphocytes, Difference with control” value in assay [1] (2 week infection), in assay [1] (4 week) and in assay [1] (6 week) were 187.21, 137.96 and 83.24, respectively. The “CD4+ lymphocytes, Difference with control (%)” value is “(35.5%)” in assay [1] (2 week infection), “(34.27%)” in assay [1] (4 week), “(18.09%)” in assay [1] (6 week) and “(43.0%)” in assay [1] (8 w). The “inhibition rate upon SIV” value in assay [2] is “over 90%”.
